# Data as given in ChEMBL document CHEMBL1136829, “Adenosine kinase inhibitors: polar 7-substitutent of pyridopyrimidine derivatives improving their locomotor selectivity” (Bioorg Med Chem Lett, 2003).
# Tests used:
# [1] = Effective dose to reduce locomotor side effects in animals was determined; format: functional
# [2] = molecular target: T1, Adenosine kinase (Homo sapiens, UniProt P55263); assay: Inhibitory concentration against adenosine kinase was determined
# [3] = species on record: Rattus norvegicus; assay: Effective dose to reduce pain in carregenin induced thermal hyperalgesia assay in rat was determined; format: functional
# [4] = molecular target: T1, Adenosine kinase; assay: Inhibitory concentration against adenosine kinase was determined in cell assay
# [5] = Percent inhibition of the locomotor side effects in animals at 30 umol/kg po was determined; format: functional
# [6] = Percent inhibition of the locomotor side effects in animals at 100 umol/kg po was determined; format: functional
# T1 sequence (P55263 whole entry): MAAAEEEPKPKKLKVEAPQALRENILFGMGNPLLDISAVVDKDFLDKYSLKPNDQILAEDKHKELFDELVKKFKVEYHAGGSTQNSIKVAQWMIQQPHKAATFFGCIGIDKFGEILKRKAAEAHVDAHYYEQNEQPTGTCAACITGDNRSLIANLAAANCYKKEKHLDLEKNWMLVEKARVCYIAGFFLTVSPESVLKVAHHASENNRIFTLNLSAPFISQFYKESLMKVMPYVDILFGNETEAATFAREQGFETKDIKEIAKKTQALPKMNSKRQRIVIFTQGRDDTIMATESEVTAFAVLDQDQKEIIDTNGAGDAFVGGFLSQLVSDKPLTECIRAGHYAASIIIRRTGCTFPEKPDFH
SMILES,IC50 [2] [nM],IC50 [4] [nM],ED50 [1] [µmol/kg],ED50 [3] [µmol/kg],inhibition in vivo at 30 µmol/kg [5] [%],inhibition in vivo at 100 µmol/kg [6] [%]
Nc1ncnc2nc(-c3ccc(N4CCC[C@H]4CO)nn3)cc(-c3cccc(Br)c3)c12,16.2,154,–,10,98,75
COCCOC1CCN(c2ccc(-c3cc(-c4cccc(Br)c4)c4c(N)ncnc4n3)nn2)CC1,15.1,81.9,10,3,–,–
Nc1ncnc2nc(-c3ccc(N4CCC(CCOC5CCOCC5)CC4)nn3)cc(-c3cccc(Br)c3)c12,22.8,89.5,9,30,–,–
Nc1ncnc2nc(-c3ccc(N4CCC5(CC4)COCO5)nc3)cc(-c3cccc(Br)c3)c12,8.3,378,6,2,–,–
Nc1ncnc2nc(-c3ccc(N4C[C@@H](O)[C@@H](O)C4)nc3)cc(-c3cccc(Br)c3)c12,6.5,130,–,2,73,–
CCO[C@H]1CN(c2ccc(-c3cc(-c4cccc(Br)c4)c4c(N)ncnc4n3)nn2)C[C@H]1OCC,7.2,40.7,25,3,–,–
CON=C1CCN(c2ccc(-c3cc(-c4cccc(Br)c4)c4c(N)ncnc4n3)nn2)CC1,18.8,74.4,6,13,–,–

# Now from value to compound, other results behind:
IC50 [2] [nM],IC50 [4] [nM],SMILES,ED50 [1] [µmol/kg],ED50 [3] [µmol/kg],inhibition in vivo at 30 µmol/kg [5] [%],inhibition in vivo at 100 µmol/kg [6] [%]
7.5,19.5,Nc1ncnc2nc(-c3ccc(N4CC5CC4CO5)nc3)cc(-c3cccc(Br)c3)c12 (stereo unspecified),8,2,–,–
10.4,51.7,CCOC1CCN(c2ccc(-c3cc(-c4cccc(Br)c4)c4c(N)ncnc4n3)nn2)CC1,20,7,–,–
7.1,52,Nc1ncnc2nc(-c3ccc(N4CCC(=NOC5CCOCC5)CC4)nn3)cc(-c3cccc(Br)c3)c12,7,2,–,–
31.7,43.7,C/C(=N/OC1CCOCC1)C1(O)CCN(c2ccc(-c3cc(-c4cccc(Br)c4)c4c(N)ncnc4n3)cn2)CC1,30,5,–,–
10,–,Nc1ncnc2nc(-c3ccc(N4CCC(=NOC5CCOCC5)CC4)nc3)cc(-c3cccc(Br)c3)c12,10,2,–,–
8.1,50.2,Nc1ncnc2nc(-c3ccc(N4CCC(O)(C5CCOC5=O)CC4)nc3)cc(-c3cccc(Br)c3)c12 (stereo unspecified),–,4,97,87
7.5,496,N#C[C@H]1CN(c2ccc(-c3cc(-c4cccc(Br)c4)c4c(N)ncnc4n3)cn2)C[C@H]1O,–,4,91,–
2.8,17.3,Nc1ncnc2nc(-c3ccc(N4CCC(COC5CCOCC5)CC4)nn3)cc(-c3cccc(Br)c3)c12,5,5,–,–
